Measurements published in ChEMBL document CHEMBL3885861, “Open TG-GATES”.

Organism: Rattus norvegicus
Test: Open TG-GATES - Regimen: Daily Repeat
Assay type: toxicity, organism-based, Sprague-Dawley
Design: regimen Daily Repeat, gender Male, age 6 weeks
Settings: in vivo, iv, 0 mg/kg, route intravenous injection, dose level Control; for APTT / Bas / Eos / Fbg / Hb / Ht / Lym / MCH / MCHC / MCV / Mono / Neu / PT / Plat / RBC / Ret / WBC: tissue Blood; for KIDNEY_L / KIDNEY_R / KIDNEY_TOTAL: tissue Kidney; for LIVER: tissue Liver; for A/G / ALP / ALT / AST / BUN / CRE / Ca / Cl / DBIL / GLC / IP / K / LDH / Na / PL / RALB / TBIL / TC / TG / TP / gamma-GTP: tissue Plasma

C[C@@H]1[C@H](O)[C@@H](C)/C=C/C=C/C=C/C=C/C=C/C=C/C=C/[C@H](O[C@@H]2O[C@H](C)[C@@H](O)[C@H](N)[C@@H]2O)C[C@@H]2O[C@](O)(C[C@@H](O)C[C@@H](O)[C@H](O)CC[C@@H](O)C[C@@H](O)CC(=O)O[C@H]1C)C[C@H](O)[C@H]2C(=O)O [AMPHOTERICIN B]
TERMINAL_BW (72 h, time 3 day): 239.8 g
APTT (72 h, time 3 day): 16.6 s
Bas (72 h, time 3 day): 0%
Eos (72 h, time 3 day): 1%
Fbg (72 h, time 3 day): 293.6 mg/dL
Hb (72 h, time 3 day): 13.7 g/dL
Ht (72 h, time 3 day): 40.1%
Lym (72 h, time 3 day): 75.8%
MCH (72 h, time 3 day): 20.5 pg
MCHC (72 h, time 3 day): 34.2%
MCV (72 h, time 3 day): 60 fL
Mono (72 h, time 3 day): 2.2%
Neu (72 h, time 3 day): 19.8%
PT (72 h, time 3 day): 12.6 s
Plat (72 h, time 3 day): 145.3 x10_4/uL
RBC (72 h, time 3 day): 668.2 x10_4/ul
Ret (72 h, time 3 day): 4.9%
WBC (72 h, time 3 day): 97.1 x10_2/uL
KIDNEY_L (72 h, time 3 day): 1 g
KIDNEY_R (72 h, time 3 day): 1 g
KIDNEY_TOTAL (72 h, time 3 day): 2 g
LIVER (72 h, time 3 day): 11.5 g
A/G (72 h, time 3 day): 0.8
ALP (72 h, time 3 day): 1512.4 IU/L
ALT (72 h, time 3 day): 38.6 IU/L
AST (72 h, time 3 day): 66.2 IU/L
BUN (72 h, time 3 day): 16.6 mg/dL
CRE (72 h, time 3 day): 0.2 mg/dL
Ca (72 h, time 3 day): 11 mg/dL
Cl (72 h, time 3 day): 105.4 meq/L
DBIL (72 h, time 3 day): 0.02 mg/dL
GLC (72 h, time 3 day): 175.4 mg/dL
IP (72 h, time 3 day): 7.3 mg/dL
K (72 h, time 3 day): 4.1 meq/L
LDH (72 h, time 3 day): 58.6 IU/L
Na (72 h, time 3 day): 142.8 meq/L
PL (72 h, time 3 day): 140.6 mg/dL
RALB (72 h, time 3 day): 2.7 g/dL
TBIL (72 h, time 3 day): 0.046 mg/dL
TC (72 h, time 3 day): 73.6 mg/dL
TG (72 h, time 3 day): 110.8 mg/dL
TP (72 h, time 3 day): 6 g/dL
gamma-GTP (72 h, time 3 day): 1.2 IU/L
TERMINAL_BW ([…], time 7 day): 275.6 g
TERMINAL_BW ([…], time 14 day): 324.6 g
TERMINAL_BW ([…], time 28 day): 391.3 g
APTT ([…], time 7 day): 17.5 s
Bas ([…], time 7 day): 0%
Eos ([…], time 7 day): 1%
Fbg ([…], time 7 day): 264.4 mg/dL
Hb ([…], time 7 day): 13.4 g/dL
Ht ([…], time 7 day): 38.9%
Lym ([…], time 7 day): 79.8%
MCH ([…], time 7 day): 20.7 pg
MCHC ([…], time 7 day): 34.4%
MCV ([…], time 7 day): 60 fL
Mono ([…], time 7 day): 2.2%
Neu ([…], time 7 day): 16%
PT ([…], time 7 day): 12.3 s
Plat ([…], time 7 day): 122.6 x10_4/uL
RBC ([…], time 7 day): 648.2 x10_4/ul
Ret ([…], time 7 day): 4.7%
WBC ([…], time 7 day): 102.1 x10_2/uL
APTT ([…], time 14 day): 16.3 s
Bas ([…], time 14 day): 1%
Eos ([…], time 14 day): 1%
Fbg ([…], time 14 day): 280.6 mg/dL
Hb ([…], time 14 day): 14.6 g/dL
Ht ([…], time 14 day): 41.3%
Lym ([…], time 14 day): 80%
MCH ([…], time 14 day): 20.5 pg
MCHC ([…], time 14 day): 35.4%
MCV ([…], time 14 day): 57.8 fL
Mono ([…], time 14 day): 2.4%
Neu ([…], time 14 day): 15.6%
PT ([…], time 14 day): 12.3 s
Plat ([…], time 14 day): 129.9 x10_4/uL
RBC ([…], time 14 day): 716.4 x10_4/ul
Ret ([…], time 14 day): 4%
WBC ([…], time 14 day): 134.6 x10_2/uL
APTT ([…], time 28 day): 19.2 s
Bas ([…], time 28 day): 0.4%
Eos ([…], time 28 day): 1%
Fbg ([…], time 28 day): 260.4 mg/dL
Hb ([…], time 28 day): 15.3 g/dL
Ht ([…], time 28 day): 43.7%
Lym ([…], time 28 day): 77%
MCH ([…], time 28 day): 18.9 pg
MCHC ([…], time 28 day): 35%
MCV ([…], time 28 day): 54 fL
Mono ([…], time 28 day): 1.4%
Neu ([…], time 28 day): 19%
PT ([…], time 28 day): 13 s
Plat ([…], time 28 day): 114.3 x10_4/uL
RBC ([…], time 28 day): 808.4 x10_4/ul
Ret ([…], time 28 day): 2.2%
WBC ([…], time 28 day): 119.7 x10_2/uL
KIDNEY_L ([…], time 7 day): 1.1 g
KIDNEY_R ([…], time 7 day): 1.1 g
KIDNEY_TOTAL ([…], time 7 day): 2.2 g
KIDNEY_L ([…], time 14 day): 1.3 g
KIDNEY_R ([…], time 14 day): 1.3 g
KIDNEY_TOTAL ([…], time 14 day): 2.6 g
KIDNEY_L ([…], time 28 day): 1.4 g
KIDNEY_R ([…], time 28 day): 1.3 g
KIDNEY_TOTAL ([…], time 28 day): 2.8 g
LIVER ([…], time 7 day): 12 g
LIVER ([…], time 14 day): 14 g
LIVER ([…], time 28 day): 15.5 g
A/G ([…], time 7 day): 0.8
ALP ([…], time 7 day): 1920.8 IU/L
ALT ([…], time 7 day): 35 IU/L
AST ([…], time 7 day): 69 IU/L
BUN ([…], time 7 day): 17 mg/dL
CRE ([…], time 7 day): 0.2 mg/dL
Ca ([…], time 7 day): 11.3 mg/dL
Cl ([…], time 7 day): 105.6 meq/L
DBIL ([…], time 7 day): 0.02 mg/dL
GLC ([…], time 7 day): 179.8 mg/dL
IP ([…], time 7 day): 7 mg/dL
K ([…], time 7 day): 4.3 meq/L
LDH ([…], time 7 day): 63 IU/L
Na ([…], time 7 day): 143.8 meq/L
PL ([…], time 7 day): 136.2 mg/dL
RALB ([…], time 7 day): 2.7 g/dL
TBIL ([…], time 7 day): 0.05 mg/dL
TC ([…], time 7 day): 69.8 mg/dL
TG ([…], time 7 day): 101.6 mg/dL
TP ([…], time 7 day): 5.9 g/dL
gamma-GTP ([…], time 7 day): 1 IU/L
A/G ([…], time 14 day): 0.8
ALP ([…], time 14 day): 1407.4 IU/L
ALT ([…], time 14 day): 40.8 IU/L
AST ([…], time 14 day): 66 IU/L
BUN ([…], time 14 day): 18 mg/dL
CRE ([…], time 14 day): 0.2 mg/dL
Ca ([…], time 14 day): 10.9 mg/dL
Cl ([…], time 14 day): 105 meq/L
DBIL ([…], time 14 day): 0.014 mg/dL
GLC ([…], time 14 day): 185.4 mg/dL
IP ([…], time 14 day): 7.4 mg/dL
K ([…], time 14 day): 4.2 meq/L
LDH ([…], time 14 day): 61 IU/L
Na ([…], time 14 day): 142.8 meq/L
PL ([…], time 14 day): 144.6 mg/dL
RALB ([…], time 14 day): 2.6 g/dL
TBIL ([…], time 14 day): 0.048 mg/dL
TC ([…], time 14 day): 76.2 mg/dL
TG ([…], time 14 day): 117 mg/dL
TP ([…], time 14 day): 6 g/dL
gamma-GTP ([…], time 14 day): 1 IU/L
A/G ([…], time 28 day): 0.7
ALP ([…], time 28 day): 1095.6 IU/L
ALT ([…], time 28 day): 36.8 IU/L
AST ([…], time 28 day): 62.2 IU/L
BUN ([…], time 28 day): 17.2 mg/dL
CRE ([…], time 28 day): 0.2 mg/dL
Ca ([…], time 28 day): 11.1 mg/dL
Cl ([…], time 28 day): 105 meq/L
DBIL ([…], time 28 day): 0.018 mg/dL
GLC ([…], time 28 day): 186 mg/dL
IP ([…], time 28 day): 6.2 mg/dL
K ([…], time 28 day): 3.8 meq/L
LDH ([…], time 28 day): 54.2 IU/L
Na ([…], time 28 day): 144.4 meq/L
PL ([…], time 28 day): 148.6 mg/dL
RALB ([…], time 28 day): 2.6 g/dL
TBIL ([…], time 28 day): 0.06 mg/dL
TC ([…], time 28 day): 73.8 mg/dL
TG ([…], time 28 day): 157 mg/dL
TP ([…], time 28 day): 6.4 g/dL
gamma-GTP ([…], time 28 day): 1.2 IU/L
